Data from US11760775B2, “Steroids and protein-conjugates thereof” (Regeneron Pharmaceuticals, Inc., priority 2016, dated 2023).
Counter-ions that a name gives are not always drawn. Like-named read-outs stand apart in the source and are kept apart here.

How the values were obtained:
human liver cathepsin B = human liver cathepsin B (Homo sapiens (Human), UniProt P07858); experiment: Linker-payload cleavage in Cathepsin B assay; format: biochemical; details: for Conversion rate (%): Mean
Procedure: The linker-payloads were tested in a Cathepsin B assay. After 4 hr incubation in Cathepsin B (CapB) with and without CapB inhibitor ([…]), both linker-payloads and free payload were evaluated using LC-MS/MS.
The CapB assay procedure follows: Linker-payload stock solution (10 mM in DMSO) was spiked into incubation buffer (100 mM NaOAc, 10 mM dithiothreitol, pH5) to obtain a 50 μM substrate solution. 4 μL of 0.47 μg/μL human liver cathepsin B (Athens Research & Technology, Athens, GA) in 50 mM NaOAc, 1 mM EDTA, pH 5 was added into 196 μL of 50 μM substrate solution. The reaction mixture was incubated at 37° C. for 4 hr. Then 5 μL of acetic acid and 150 μL of acetonitrile (containing osalmid as internal standard) were added to 50/Th of reaction mixture aliquots. After vortexing, the quenched samples were frozen in a −70° C. deep freezer, followed by thawing and centrifugation at 14,000 rpm.
The CapB assay experiment included the following procedure. • 1. Preheat assay buffer: 0.1 M NaOAc/0.01 M DTT (pH 5.0) • 2. Spiking solutions for test compounds: 25 μM Spiking solutions for test compounds: Add […], of 5 mM stock solution into 398 μL of 0.1 M NaOAc/0.01 M DTT buffer (pH 5.0). • 3. Prepare 0.47m/μL Cathepsin B in 50 mM NaOAc/1 mM EDTA (pH 5.0). Put on ice. • 4. Without CA074 samples: Add […], of 0.47m/μL Cathepsin B into 196 μL of 25 μM Spiking solutions (from step 2), incubate the tubes at 37° C. • 5. With CA074 samples: Add 4 μL of 0.47m/μL Cathepsin B with 4 μL of 10 mM Inhibitor (CA074) into 196 μL of 25 μM Spiking solutions (from step 2), incubate the tubes at 37° C. • 6. After 4 hours, Aliquots of 5 μL (with CA074 and without CA074) were taken for enzyme activity test (step 15-17). Meanwhile, Aliquots of 50 μL were taken at the time point (4 h), adding 5 μL of acetic acid, and then add 150 μL of ACN (IS) to stop the reaction. • 7. After quenching, shake the plate and centrifuge them at 14000 rpm. • 8. Transfer 50 μL of the supernatant from each well into a 96-well sample plate containing 50 μL of ultra pure water (Millipore, ZMQS50F01) for LC/MS analysis.
The CapB assay experiment included the reference compounds and the following procedure. • 9. Preheat assay buffer: 100 mM Na/K phosphate, pH6.0, with 1.33 mM EDTA and 2 mM DTT. • 10. Prepare 0.024m/μL Cathepsin B: Add […] of 0.47 μg/μL Cathepsin B stock into 19 μL of assay buffer (from step 11). • 11. Add 2 μL of 0.024m/μL Cathepsin B (from step 12) to a opaque 96-well plate. • 12. Add 96 μL of assay buffer to each sample. • 13. Add 2 μL of the 10 mM substrate Z—RR-MNA(200 μM final concentration). • For negative control (with inhibitor), add 2 μL of 10 mM Inhibitor (CA074). • 14. Immediately read the samples in a kinetic mode at excitation of 340 nm/emission of 425 nm (Read the plate every 30 Second for 3 min).
Stability of Cathepsin B in incubation samples: • 15. Take Take 5 μL of incubation samples into 93 μL of assay buffer (from step 11), and then add 2 μL of 10 mM substrate (Z—RR-MNA). • 16. Incubate the samples at 37° C. for 2 min. • 17. Read the samples at excitation of 340 nm/emission of 425 nm.

[1] = molecular target: Glucocorticoid Receptor (GR) (Homo sapiens (Human), UniProt P04150); experiment: LanthaScreen TR-FRET GR Competitive Binding Assay (cell free)
Chain of Glucocorticoid Receptor (GR) (P04150 524-758): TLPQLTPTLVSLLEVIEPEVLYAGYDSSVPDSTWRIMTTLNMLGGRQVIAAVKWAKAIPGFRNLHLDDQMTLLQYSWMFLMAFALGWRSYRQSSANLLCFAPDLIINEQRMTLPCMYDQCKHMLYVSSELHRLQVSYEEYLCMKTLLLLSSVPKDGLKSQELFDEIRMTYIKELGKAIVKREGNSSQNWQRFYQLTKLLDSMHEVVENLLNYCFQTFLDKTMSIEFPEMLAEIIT

[2] = test system: GR activation in 293/PRLR/GRE-Luc cells (HEK293/9xUAS-Luc2P/pBind-GR/PRLR-HA high cells); experiment: GR co-activator luciferase reporter cell based assay in 293/PRLR/GRE-Luc cells; parameters: species or system human; details: for Emax / EC50: Homo sapiens; for Emax: HEK293, read-out: Activation (fold activation relative to Budesonide) in HEK293/9xUAS-Luc2P/pBind-GR/PRLR-HA high cells; for EC50: HEK293, read-out: HEK293/9xUAS-Luc2P/pBind-GR/PRLR-HA high cells EC50; for HEK293/9xUAS-Luc2P/pBind-GR/PRLR-HA high cells activation relative to Budesonide: fold activation vs Budesonide
Text: Bioassays described herein were used to assess the efficacy of free steroids and anti-PRLR-ncADCs. In one example, the bioassay assessed the activity of steroids, after internalization of a site-specific anti-PRLR-GC steroid ADC into cells, to bind to pBIND-GR and subsequent luciferase reporter activation. […] Then such stable cell line was further transfected with a chimeric receptor consisting of a GR ligand binding domain fused to the yeast Gal4 DNA binding domain (pBind-GR, Promega Cat #E1581), and a Gal4 upstream activator sequence (9×Gal4UAS-Luc2P) that drives luciferase gene expression.
(§1) For this assay, 20,000 cells were seeded in 96-well plates in media containing DMEM supplemented with 10% FBS and pencillin/streptomycin (complete media) and grown overnight at 37° C. in 5% CO2. […] Luciferase activity was determined by addition of OneGlo™ reagent (Promega, Cat #E6130) and relative light units (RLUs) were measured on a Victor luminometer (Perkin Elmer). The EC50 values were determined from a four-parameter logistic equation over a 10 point response curve using GraphPad Prism.
as §1, with “One-Glo™” for “OneGlo™”, “10-point” for “10 point”, “Prism. […] Minimal activation in this assay is defined as less than 10% of the maximal activation measured with the free payload.” for “Prism.”

[3] = with CA074 (Cathepsin B inhibitor), 4 hr incubation
[4] = without CA074, 4 hr incubation with Cathepsin B

| SMILES | Conversion rate (%) (human liver cathepsin B; [3]) | IC50 [1] [nM] | Emax ([2]; 72 hours of incubation) [%] | EC50 ([2]; 72 hours of incubation) [nM] | other results |
| --- | --- | --- | --- | --- | --- |
| CCCC1O[C@@H]2C[C@H]3[C@@H]4C[C@H](F)C5=CC(=O)C=C[C@]5(C)[C@@]4(F)[C@@H](O)C[C@]3(C)[C@]2(C(=O)CNC(=O)OCc2ccc(NC(=O)[C@H](CCCNC(N)=O)NC(=O)[C@@H](NC(=O)[C@@H](CCCCNC(=O)COC3CCCCCc4c3nnn4CC3OC4OC5C(CO)OC(OC6C(CO)OC(OC7C(CO)OC(OC8C(CO)OC(OC9C(CO)OC(OC3C(O)C4O)C(O)C9O)C(O)C8O)C(O)C7O)C(O)C6O)C(O)C5O)NC(=O)CCOCCOCCOCCOCCNC(=O)CCC(=O)N3Cc4ccccc4C#Cc4ccccc43)C(C)C)cc2)O1 (some centres unmarked) [LP104] | <1.00 |  |  |  | Cleavage by Cathepsin B and payload release (human liver cathepsin B; 4 hr incubation, LC-MS/MS): could be cleaved by CapB and released more payload (4b); Conversion rate (%) (human liver cathepsin B; [4]): 29.0% |
| CCCC1O[C@@H]2C[C@H]3[C@@H]4C[C@H](F)C5=CC(=O)C=C[C@]5(C)[C@@]4(F)[C@@H](O)C[C@]3(C)[C@]2(C(=O)COc2ccc(NC(=O)[C@H](C)NC(=O)[C@@H](NC(=O)[C@@H](N)CCCCNC(=O)COC3C#CCCCCC3)C(C)C)cc2)O1 (some centres unmarked) [LP102] | <1.00 |  |  |  | Conversion rate (%) (human liver cathepsin B; [4]): 22.72% |
| CCCC1O[C@@H]2C[C@H]3[C@@H]4C[C@H](F)C5=CC(=O)C=C[C@]5(C)[C@@]4(F)[C@@H](O)C[C@]3(C)[C@]2(C(=O)CNC(=O)OCc2ccc(NC(=O)[C@H](CCCNC(N)=O)NC(=O)[C@@H](NC(=O)CCOCCOCCOCCOCCNC(=O)CCC(=O)N3Cc4ccccc4C#Cc4ccccc43)C(C)C)cc2)O1 (some centres unmarked) [LP112] | <1.00 |  |  |  | Conversion rate (%) (human liver cathepsin B; [4]): 20.8% |
| CCCC1O[C@@H]2C[C@H]3[C@@H]4C[C@H](F)C5=CC(=O)C=C[C@]5(C)[C@@]4(F)[C@@H](O)C[C@]3(C)[C@]2(C(=O)COc2ccc(NC(=O)OCc3ccc(NC(=O)[C@H](CCCNC(N)=O)NC(=O)[C@@H](NC(=O)CCOCCOCCOCCOCCNC(=O)CCC(=O)N4Cc5ccccc5C#Cc5ccccc54)C(C)C)cc3)cc2)O1 (some centres unmarked) [LP116] | <1.00 |  |  |  |  |
| CCCC1O[C@@H]2C[C@H]3[C@@H]4C[C@H](F)C5=CC(=O)C=C[C@]5(C)[C@@]4(F)[C@@H](O)C[C@]3(C)[C@]2(C(=O)CN)O1 (stereo partly drawn) [11-19 R/S, (1S,2S,4R,6R,8S,9S,11S,12R,13S,19S)-8-(2-Aminoacetyl)-12,19-difluoro-11-hydroxy-9,13-dimethyl-6-propyl-5,7-dioxapentacyclo[10.8.0.0^2,90.0^4,80.0^13,18]icosa-14,17-dien-16-one; trifluoroacetic acid salt] |  | < 10 | > 75 | < 10 |  |
| CCC[C@H]1O[C@@H]2C[C@H]3[C@@H]4C[C@H](F)C5=CC(=O)C=C[C@]5(C)[C@@]4(F)[C@@H](O)C[C@]3(C)[C@]2(C(=O)COc2ccc(N)cc2)O1 [Compound S-6-I, (1S,2S,4R,6S,8S,9S,11S,12R,13S,19S)-8-[2-(4-Aminophenoxy)acetyl]-12,19-difluoro-11-hydroxy-9,13-dimethyl-6-propyl-5,7-dioxapentacyclo[10.8.0.0^2,90.0^4,80.0^13,18]icosa-14,17-dien-16-one] |  | < 10 |  |  | EC50 [2]: < 10 nM; HEK293/9xUAS-Luc2P/pBind-GR/PRLR-HA high cells activation relative to Budesonide [2]: Full |
| CCC[C@@H]1O[C@@H]2C[C@H]3[C@@H]4CCC5=CC(=O)C=C[C@]5(C)[C@H]4[C@@H](O)C[C@]3(C)[C@]2(C(=O)COc2ccc(F)cc2)O1 [11-10 R/S, (1S,2S,4R,6R,8S,9S,11S,12S,13R)-8-[2-(4-Fluorophenoxy)acetyl]-11-hydroxy-9,13-dimethyl-6-propyl-5,7-dioxapentacyclo[10.8.0.0^2,90.0^4,80.0^13,18]icosa-14,17-dien-16-one] |  | < 10 | < 20 | > 100 |  |
| CCC(=O)O[C@]1(C(=O)CNC)[C@@H](C)C[C@H]2[C@@H]3C[C@H](F)C4=CC(=O)C=C[C@]4(C)[C@@]3(F)[C@@H](O)C[C@@]21C [Compound 14-2, (1R,2S,8S,10S,11S,13S,14R,15S,17S)-1,8-difluoro-17-hydroxy-2,13,15-trimethyl-14-[2-(methylamino)acetyl]-5-oxotetracyclo[8.7.0.0^2,70.0^11,15]heptadeca-3,6-dien-14-yl propanoate] |  | < 10 | < 20 | > 100 |  |
| CCCC1O[C@@H]2C[C@H]3[C@@H]4CCC5=CC(=O)C=C[C@]5(C)[C@@]4(F)[C@@H](O)C[C@]3(C)[C@]2(C(=O)CN)O1 (stereo partly drawn) [Compound 4h, (1S,2S,4R,8S,9S,11S,12R,13S)-8-(2-Aminoacetyl)-12-fluoro-11-hydroxy-9,13-dimethyl-6-propyl-5,7-dioxapentacyclo[10.8.0.0^2,9.0^4,8.0^13,18]icosa-14,17-dien-16-one] |  | 10 to 50 |  |  | EC50 [2]: < 10 nM; HEK293/9xUAS-Luc2P/pBind-GR/PRLR-HA high cells activation relative to Budesonide [2]: Full |
| CCC[C@@H]1O[C@@H]2C[C@H]3[C@@H]4CCC5=CC(=O)C=C[C@]5(C)[C@H]4[C@@H](O)C[C@]3(C)[C@]2(C(=O)COc2ccc(N)cc2F)O1 [11-7 R, (1S,2S,4R,8S,9S,11S,12S,13R)-8-[2-(4-Amino-3-fluorophenoxy)acetyl]-11-hydroxyl-9,13-dimethyl-6-propyl-5,7-dioxapentacyclo[10.8.0.0^2,90.0^4,80.0^13,18]icosa-14,17-dien-16-one] |  | 10 to 100 | > 75 | 10 to 100 |  |
| CCC[C@H]1O[C@@H]2C[C@H]3[C@@H]4CCC5=CC(=O)C=C[C@]5(C)[C@H]4[C@@H](O)C[C@]3(C)[C@]2(C(=O)COc2ccc(N)c(F)c2)O1 [11-6 S, (1S,2S,4R,6S,8S,9S,11S,12S,13R)-8-[2-(4-Amino-3-fluorophenoxy)acetyl]-11-hydroxyl-9,13-dimethyl-6-propyl-5,7-dioxapentacyclo[10.8.0.0^2,90.0^4,80.0^13,18]icosa-14,17-dien-16-one] |  | 10 to 100 | > 75 | < 10 |  |
